According to patent US20260091143A1, “NEAR-INFRARED IMAGING AGENT AND USES THEREOF” (CASE WESTERN RESERVE UNIVERSITY, priority 2022, published 2026):
Values belong to the compound of their own block, whether it stands above or below them. Where no end group is shown, it is not given here.

What was measured:
[1] = Whole-body and ventral fluorescent imaging of biodistribution and clearance; format: in vivo, mice; settings: for clearance via the renal system: mouse, in vivo
Text: (§1) The IVIS Spectrum In vivo Imaging System and Living Image analysis software, (Perkin Elmer, Hopkinton, MA, USA) were used for acquisition and analysis of mouse images. Prior to the experiment, mice were weighed, and baseline images acquired using the appropriate filter sets and the autoexposure setting. Three filter sets for excitation/emission were used: 745 nm/800 nm, 745 nm/820 nm, 745 nm/840 nm. The filter set showing highest fluorescence intensity for a fluorophore was used throughout for that dye. For ICG, 745 nm/820 nm was used and for IRDye® 800CW and Tide Fluor™ 8WS, 745 nm/800 nm was used. Agent stocks were diluted in saline or PBS to ˜100 μM and the volume needed for the desired dose of 300 nmol/kg or 400 nmol/kg calculated. Doses were loaded into polyurethane tubing and connected to a 1 mL syringe as previously described. Mice were anesthetized in an induction chamber with 2% isoflurane-oxygen and moved onto a 37° C. heated platform with a nose cone. 26-gauge veterinary catheters were placed in each tail and the preloaded tubing was connected. Agents were injected over 30 sec, catheters were removed, and animals placed in the prepared Spectrum imaging chamber. Images were acquired beginning 10 min after injecting the agents. For SBK2-CCLE-IR800 and Scram-CCLE-IR800, images were acquired every 10 min for 60 min. For the ICG-labeled and TF8WS-labeled peptides, images were acquired at 10 min, 30 min, 1 h, 2 h, 4 h, 8 h, and 24 h. At the end of the imaging time, the animals were euthanized by CO2 asphyxiation, and the tumor and other organs excised and imaged on the Spectrum.

[2] = system: LN-229 glioma flank tumor; assay: In vivo fluorescent imaging of tumor signal in LN-229 flank tumor-bearing nude mice; settings: for p-value, in vivo tumor ROI mean, ICG vs SBK2-CLE-ICG: ICG 400 nmol/kg vs 300 nmol/kg SBK2-CLE-ICG; for p-value, in vivo tumor ROI mean, ICG vs SBK2-CLE-ICG / p-value, in vivo tumor ROI mean, ICG vs SBK2-ICG / p-value, in vivo tumor ROI mean, ICG vs Scram-CLE-ICG / p-value, in vivo tumor ROI mean, ICG vs Scram-ICG: Welch's t-test; for p-value, in vivo tumor ROI mean, ICG vs SBK2-ICG: ICG 400 nmol/kg vs 300 nmol/kg SBK2-ICG; for p-value, in vivo tumor ROI mean, ICG vs Scram-CLE-ICG: ICG 400 nmol/kg vs 300 nmol/kg Scram-CLE-ICG; for p-value, in vivo tumor ROI mean, ICG vs Scram-ICG: ICG 400 nmol/kg vs 300 nmol/kg Scram-ICG
Text: (§2) All applicable institutional and/or NIH guidelines for the care and use of animals were followed. The Case Western Reserve University Institutional Animal Care and Use Committee reviewed and approved the animal protocols. Outbred homozygous female nude mice (Fox1^nu/Fox1^nu) were purchased from Jackson Laboratory, Bar Harbor, ME, USA. Details of the human glioblastoma LN-229 cell line have been described previously. LN-229 cells express the PTPμ biomarker and have been used in previous studies for evaluating PTPμ-targeted agents using different imaging modalities. Flank tumors were started in the right flank of mice at approximately 7 weeks of age by injecting a mixture of 2×10^6 cells and Matrigel® Matrix (Corning®, Corning Inc., Corning, NY, USA). Experiments were performed in mice 4 to 8 weeks after implanting the tumors.
as §1
(§3) Living Image analysis software was used for region of interest (ROI) analysis of the optical data. Images acquired for each time point consist of a fluorescent image superimposed on a photographic image. Binning was set to 1 and in vivo tumor ROIs were manually drawn based on contours visible in the black and white photograph for each timepoint. After outlining the tumor ROIs, fluorescence was measured with the built-in Spectrum function. For excised tumors, kidneys, spleen and liver, ROIs were drawn around the perimeter of the tumor or organ.
(§4) LivingImage software measures fluorescence intensity in units of radiant efficiency. For these analyses, average radiant efficiency measurements in (photons/s/cm^2/steradian)/(μW/cm^2) were used for further comparisons to account for differences in tumor and organ size. GraphPad Prism 9 was used for plots and statistical analyses. Where indicated, means for pairs of agents were compared using a two-tailed t-test with Welch's correction and statistical significance was assumed at p<0.05. Welch's correction was used to eliminate assumptions about variance between the groups being compared.

[3] = Ex vivo fluorescence in excised kidneys, spleen and liver; parameters: species or system mice
Text: as §1, §3, §4

[4] = system: LN-229 glioma flank tumor; assay: Ex vivo fluorescence of excised tumors; format: in vivo, mice; settings: 24 h, ICG-labeled agents 300 nmol/kg, ICG 400 nmol/kg, Welch's t-test
Text: as §2, §1
Living Image analysis software was used for region of interest (ROI) analysis of the optical data. […] After outlining the tumor ROIs, fluorescence was measured with the built-in Spectrum function. […]
LivingImage software measures fluorescence intensity in units of radiant efficiency. […]

[5] = RP-HPLC and LC-MS/MS of IRDye 800CW-labeled agent stocks warmed to room temperature; format: physicochemical; settings: RP-HPLC
Text: The hydrophilic nature and pH sensitivity of the IRDye® 800CW precluded on-resin coupling in the organic solvents and TFA-based cleavage cocktail used for ICG-labeled molecules. IRDye® 800CW maleimide was conjugated in aqueous solution following the manufacturer's recommended protocol to cysteine residues at the N-termini of the peptides and obtained at >95% purity from PolyPeptide Group. Additional LC-MS/MS analyses using an Orbitrap Elite LC-MS, purchased via an NIH shared instrument grant, 1S10RR031537-01, were performed on these agents by the Lerner Research Institute Proteomics Core at the Cleveland Clinic.
Similar to Tide Fluor™ 8WS, the hydrophilic nature of the IRDye® 800CW results in elution of the SBK2-CCLE-IR800 at around 25 min (FIG. 7). In assessing the IRDye® 800CW-labeled agents by RP-HPLC however, a second peak appeared when the SBK2-CCLE-IR800 and Scrambled-CCLE-IR800 stocks were warmed to room temperature. LC-MS/MS analysis was performed and confirmed the identity of the main peak as belonging the agents with the closed succinimide ring, while the second peak, representing around 30% of the material, and eluting slightly earlier than the main peak was identified as containing an open succinimide ring (FIG. 1).

[6] = Kidney, 24 h, ICG-labeled agents 300 nmol/kg, ICG 400 nmol/kg, Welch's t-test
[7] = Liver, 24 h, ICG-labeled agents 300 nmol/kg, ICG 400 nmol/kg, Welch's t-test
[8] = Spleen, 24 h, ICG-labeled agents 300 nmol/kg, ICG 400 nmol/kg, Welch's t-test

clearance compared to ICG-conjugated peptides ([1]; ICG dye 400 nmol/kg): cleared much more rapidly
p-value, average radiant efficiency of excised kidney vs SBK2-CLE-ICG [3, 6]: <0.001
p-value, average radiant efficiency of excised kidney vs SBK2-ICG [3, 6]: <0.001
p-value, average radiant efficiency of excised kidney vs Scram-CLE-ICG [3, 6]: 0.008
p-value, average radiant efficiency of excised kidney vs Scram-ICG [3, 6]: 0.003
p-value, average radiant efficiency of excised liver vs SBK2-CLE-ICG [3, 7]: 0.004
p-value, average radiant efficiency of excised liver vs SBK2-ICG [3, 7]: <0.001
p-value, average radiant efficiency of excised liver vs Scram-CLE-ICG [3, 7]: <0.001
p-value, average radiant efficiency of excised liver vs Scram-ICG [3, 7]: 0.013
p-value, average radiant efficiency of excised spleen vs SBK2-CLE-ICG [3, 8]: <0.001
p-value, average radiant efficiency of excised spleen vs SBK2-ICG [3, 8]: <0.001
p-value, average radiant efficiency of excised spleen vs Scram-CLE-ICG [3, 8]: <0.001
p-value, average radiant efficiency of excised spleen vs Scram-ICG [3, 8]: 0.004
Compound: CC1(C)C(/C=C/C=C/C=C/C=C2\N(CCCCS(=O)(=O)O)c3ccc4ccccc4c3C2(C)C)=[N+](CCCCS(=O)(=O)[O-])c2ccc3ccccc3c21 [ICG, indocyanine green]
p-value, in vivo tumor ROI mean, ICG vs SBK2-CLE-ICG ([2]; 10 min): <0.001
p-value, in vivo tumor ROI mean, ICG vs SBK2-ICG ([2]; 10 min): <0.001
p-value, in vivo tumor ROI mean, ICG vs Scram-CLE-ICG ([2]; 10 min): <0.001
p-value, in vivo tumor ROI mean, ICG vs Scram-ICG ([2]; 10 min): <0.001
p-value, in vivo tumor ROI mean, ICG vs SBK2-CLE-ICG ([2]; 30 min): <0.001
p-value, in vivo tumor ROI mean, ICG vs SBK2-ICG ([2]; 30 min): <0.001
p-value, in vivo tumor ROI mean, ICG vs Scram-CLE-ICG ([2]; 30 min): <0.001
p-value, in vivo tumor ROI mean, ICG vs Scram-ICG ([2]; 30 min): <0.001
p-value, in vivo tumor ROI mean, ICG vs SBK2-CLE-ICG ([2]; 24 h): <0.001
p-value, in vivo tumor ROI mean, ICG vs SBK2-ICG ([2]; 24 h): <0.001
p-value, in vivo tumor ROI mean, ICG vs Scram-CLE-ICG ([2]; 24 h): ns
p-value, in vivo tumor ROI mean, ICG vs Scram-ICG ([2]; 24 h): <0.001
in vivo tumor fluorescence produced ([2]; ICG dye 400 nmol/kg): very little in vivo tumor fluorescence
time of peak in vivo tumor signal ([2]; ICG dye 400 nmol/kg): ≤ 10 min
p-value, average radiant efficiency of excised tumor vs SBK2-CLE-ICG [4]: 0.003
p-value, average radiant efficiency of excised tumor vs SBK2-ICG [4]: <0.001
p-value, average radiant efficiency of excised tumor vs Scram-CLE-ICG [4]: 0.019
p-value, average radiant efficiency of excised tumor vs Scram-ICG [4]: 0.003

Compound: SBK2-CCLE-IR800: IRDye 800CW maleimide conjugated to N-terminal cysteine of C.GGSGGS.GEGDDFNWEQVNTLTKPTSD (SEQ ID NO: 50) ({C(IRDye 800CW maleimide)}-GGSGGSGEGDDFNWEQVNTLTKPTSD)
clearance via the renal system [1]: more rapidly than expected
difference in in vivo tumor average radiant efficiency vs Scram-CCLE-IR800 ([2]; 400 nmol/kg, every ten minutes for 60 minutes): No significant differences
specific tumor labeling ([2]; 400 nmol/kg, versus Scrambled control agents): no specific tumor labeling
second peak containing an open succinimide ring, share of the material [5]: around 30%

Compound: Scram-CCLE-IR800: IRDye 800CW maleimide conjugated to N-terminal cysteine of C.GGSGGS.GFTQPETGTDNDLWSVDNEK (SEQ ID NO: 51) ({C(IRDye 800CW maleimide)}-GGSGGSGFTQPETGTDNDLWSVDNEK)
clearance via the renal system [1]: more rapidly than expected
difference in liver fluorescence vs SBK2-CCLE-IR800 ([3]; 400 nmol/kg, 60 min, liver): No significant difference
second peak containing an open succinimide ring, share of the material [5]: around 30%
